Measured values published in ChEMBL document CHEMBL4184094, “Spiro-1-benzofuranpiperidinylalkanoic acids as a novel and selective sphingosine S1P5 receptor agonist chemotype” (Bioorg Med Chem Lett, 2018).
In brackets after ≈: the same amount, converted by molar mass.

Legend:
[1] = molecular target: Sphingosine 1-phosphate receptor 5 (Homo sapiens, UniProt Q9H228); test: Agonist activity at human S1P5 receptor expressed in CHO cells assessed as increase in calcium flux by aequorin-derived luminescence assay; assay type: functional, cell-based
Sphingosine 1-phosphate receptor 5, sequence (Q9H228 whole entry): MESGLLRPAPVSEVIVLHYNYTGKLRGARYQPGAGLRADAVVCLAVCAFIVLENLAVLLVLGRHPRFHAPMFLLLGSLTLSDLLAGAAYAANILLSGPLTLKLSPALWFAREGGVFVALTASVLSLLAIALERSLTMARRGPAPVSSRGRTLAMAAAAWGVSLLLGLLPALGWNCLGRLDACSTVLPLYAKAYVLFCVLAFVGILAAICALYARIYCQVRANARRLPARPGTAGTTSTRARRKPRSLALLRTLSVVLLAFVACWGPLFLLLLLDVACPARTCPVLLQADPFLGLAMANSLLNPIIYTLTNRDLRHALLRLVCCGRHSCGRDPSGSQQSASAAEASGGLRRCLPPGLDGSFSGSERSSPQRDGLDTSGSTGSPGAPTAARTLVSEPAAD

[2] = molecular target: Sphingosine 1-phosphate receptor 1 (Homo sapiens, UniProt P21453); test: Agonist activity at human S1P1 receptor expressed in CHO cells assessed as increase in calcium flux by aequorin-derived luminescence assay; assay type: functional, cell-based
Sphingosine 1-phosphate receptor 1, sequence (P21453 whole entry): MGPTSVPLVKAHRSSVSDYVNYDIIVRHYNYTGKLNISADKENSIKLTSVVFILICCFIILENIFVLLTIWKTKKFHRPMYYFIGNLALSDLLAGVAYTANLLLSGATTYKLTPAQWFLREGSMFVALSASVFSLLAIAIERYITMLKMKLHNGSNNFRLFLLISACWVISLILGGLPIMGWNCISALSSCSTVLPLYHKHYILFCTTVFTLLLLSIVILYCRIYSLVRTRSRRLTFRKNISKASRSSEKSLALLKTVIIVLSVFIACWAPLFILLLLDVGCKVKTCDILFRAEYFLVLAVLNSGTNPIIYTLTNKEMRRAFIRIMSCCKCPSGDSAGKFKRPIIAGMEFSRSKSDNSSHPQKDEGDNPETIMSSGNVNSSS

[3] = molecular target: Sphingosine 1-phosphate receptor 3 (Homo sapiens, UniProt Q99500); test: Agonist activity at human S1P3 receptor expressed in CHO cells assessed as increase in calcium flux by aequorin-derived luminescence assay; assay type: functional, cell-based
Sphingosine 1-phosphate receptor 3, sequence (Q99500 whole entry): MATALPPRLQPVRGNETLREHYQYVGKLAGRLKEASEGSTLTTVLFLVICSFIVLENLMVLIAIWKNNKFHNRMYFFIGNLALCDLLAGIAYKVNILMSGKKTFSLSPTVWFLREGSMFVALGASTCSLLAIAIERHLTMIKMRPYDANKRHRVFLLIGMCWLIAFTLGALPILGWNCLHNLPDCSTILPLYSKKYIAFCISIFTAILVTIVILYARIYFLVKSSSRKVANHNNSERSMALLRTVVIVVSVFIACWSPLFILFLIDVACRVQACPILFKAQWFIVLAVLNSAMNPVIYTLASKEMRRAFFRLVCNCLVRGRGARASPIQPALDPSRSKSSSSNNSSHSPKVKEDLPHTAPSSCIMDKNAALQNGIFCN

[4] = Aqueous kinetic solubility of the compound by turbidimetric method; assay type: physicochemical; conditions: buffer; read-out: Kinetic_solubility
[5] = Intrinsic clearance in human microsomes assessed per mg protein; assay type: ADME, Microsome
[6] = Half life in human microsomes assessed per mg protein; assay type: ADME, Microsome
[7] = Oral bioavailability in rat; assay type: ADME, organism-based; conditions: in vivo
[8] = Ratio of drug uptake in CNS to plasma in po dosed rat; assay type: ADME, organism-based; conditions: CNS and plasma
Homo sapiens [9] = organism: Homo sapiens; test: Selectivity ratio of EC50 for human S1P5 receptor expressed in CHO cells to EC50 for human S1P3 receptor expressed in CHO cells; assay type: cell-based
Homo sapiens [10] = organism: Homo sapiens; test: Selectivity ratio of EC50 for human S1P5 receptor expressed in CHO cells to EC50 for human S1P1 receptor expressed in CHO cells; assay type: cell-based

CCc1cccc(CC)c1COc1ccc2c(c1)OCC21CCN(CCC(=O)O)CC1
EC50 [1]: 20 nM | EC50 [2]: 1580 nM | EC50 [3]: 1580 nM | solubility kinetic [4]: ≥ 100 µM | microsomal CLint [5]: 0.92 µL/min/mg | half-life [6]: 25.2 h

O=C(O)CCN1CCC2(CC1)COc1cc(OCc3cccc(Cl)c3)ccc12
EC50 [1]: 316 nM | EC50 [2]: > 10000 nM | EC50 [3]: > 10000 nM

Cl.O=C(O)CCN1CCC2(CC1)COc1cc(/C=C/c3c(Cl)cccc3Cl)ccc12
EC50 [1]: 12.6 nM | EC50 [2]: > 31600 nM | solubility kinetic [4]: 30 to 100 µM | microsomal CLint [5]: 0.76 µL/min/mg | half-life [6]: 30.3 h | bioavailability [7]: 73% | Kp [8]: 0.8

CCc1cccc(Cl)c1CSc1ccc2c(c1)OCC21CCN(CCC(=O)O)CC1.Cl
EC50 [1]: 2.51 nM | EC50 [2]: 126 nM | EC50 [3]: > 1000 nM | solubility kinetic [4]: 30 to 100 µM | microsomal CLint [5]: 42 µL/min/mg | half-life [6]: 0.55 h | Ratio EC50 (Homo sapiens [9]): 100

CCc1cccc(Cl)c1COc1ccc2c(c1)OCC21CCCN(CCC(=O)O)C1.Cl (stereo unspecified)
EC50 [1]: 31.6 nM | EC50 [2]: > 31600 nM | EC50 [3]: > 10000 nM | solubility kinetic [4]: ≥ 100 µM | microsomal CLint [5]: 3.4 µL/min/mg | half-life [6]: 6.82 h | Ratio EC50 (Homo sapiens [9]): 100 | Ratio EC50 (Homo sapiens [10]): 1000

CCc1cccc(Cl)c1COc1ccc2c(c1)OCC21CCN(CCC(=O)O)CC1
EC50 [1]: 15.8 nM | EC50 [3]: > 10000 nM | Ratio EC50 (Homo sapiens [9]): 100

Cl.O=C(O)CN1CCC2(CC1)COc1cc(S(=O)(=O)Cc3c(Cl)cccc3Cl)ccc12
EC50 [1]: 794 nM | EC50 [2]: > 31600 nM | EC50 [3]: > 10000 nM | solubility kinetic [4]: ≥ 100 µM | CL [5]: 33 µL/min | t1/2 [6]: 2.15 h

CCCCCCCCc1ccc(CCC(N)(CO)CO)cc1 [FINGOLIMOD]
EC50 [1]: 3160 nM | EC50 [3]: 2510 nM | solubility kinetic [4]: 1 to 6.5 µM (≈ 0.307 to 2 µg/mL)

O=C(O)C(F)(F)F.O=C(O)CCN1CCC2(CC1)COc1cc(OCc3ccccc3Cl)ccc12
EC50 [1]: 126 nM | EC50 [3]: > 31600 nM | solubility kinetic [4]: 30 to 100 µM | microsomal CLint [5]: 9.1 µL/min/mg | half-life [6]: 2.55 h

Cl.O=C(O)CCN1CCC2(CC1)COc1cc(OCc3c(Cl)cccc3Cl)ccc12
EC50 [1]: 158 nM | EC50 [2]: 6310 nM | EC50 [3]: > 10000 nM | solubility kinetic [4]: ≥ 100 µM | microsomal CLint [5]: 3.1 µL/min/mg | half-life [6]: 7.45 h | Kp [8]: 0.2

O=C(O)CCCN1CCC2(CC1)COc1cc(OCc3c(Cl)cccc3Cl)ccc12
EC50 [1]: 15.8 nM | EC50 [2]: 5010 nM | EC50 [3]: 1260 nM

Cc1cc(Cl)c(COc2ccc3c(c2)OCC32CCN(CCC(=O)O)CC2)c(Cl)c1
EC50 [1]: 7.94 nM | EC50 [2]: 316 nM

CC(C)c1cccc(Cl)c1COc1ccc2c(c1)OCC21CCN(CCC(=O)O)CC1.Cl
EC50 [1]: 25.1 nM | EC50 [2]: 1260 nM | EC50 [3]: > 10000 nM | solubility kinetic [4]: 30 to 100 µM | microsomal CLint [5]: 2.1 µL/min/mg | half-life [6]: 11.2 h | Ratio EC50 (Homo sapiens [9]): 100

O=C(O)CCN1CCC2(CC1)COc1cc(C#Cc3ccccc3Cl)ccc12
EC50 [1]: 25.1 nM | EC50 [2]: > 31600 nM | EC50 [3]: > 10000 nM | Ratio EC50 (Homo sapiens [9]): 100 | Ratio EC50 (Homo sapiens [10]): 1000

Cl.O=C(O)CCN1CCC2(CC1)COc1cc(C#Cc3ccccc3)ccc12
EC50 [1]: 39.8 nM | solubility kinetic [4]: 100 µM | microsomal CLint [5]: 8.3 µL/min/mg | half-life [6]: 2.78 h

Cl.O=C(O)CCN1CCC2(CC1)COc1cc(OCc3cc(Cl)nc(Cl)c3)ccc12
EC50 [1]: 316 nM | EC50 [2]: > 31600 nM | EC50 [3]: > 10000 nM | solubility kinetic [4]: > 100 µM | microsomal CLint [5]: 13.9 µL/min/mg | half-life [6]: 1.67 h

O=C(O)CCN1CCC2(CC1)COc1cc(OCc3cccc(Cl)c3Cl)ccc12
EC50 [1]: 200 nM | EC50 [2]: 1580 nM | EC50 [3]: > 10000 nM

CC(CN1CCC2(CC1)COc1cc(OCc3c(Cl)cccc3Cl)ccc12)C(=O)O (stereo unspecified)
EC50 [1]: 63.1 nM | EC50 [2]: 1260 nM

O=C(O)CCN1CCC2(CC1)COc1cc(OCCCc3ccccc3)ccc12
EC50 [1]: 2000 nM | EC50 [2]: 5010 nM | EC50 [3]: 1580 nM

O=C(O)CCN1CCC2(CC1)COc1cc(OCc3c(Cl)cccc3C(F)(F)F)ccc12
EC50 [1]: 126 nM | EC50 [2]: 316 nM | EC50 [3]: > 10000 nM

CCCc1cccc(Cl)c1COc1ccc2c(c1)OCC21CCN(CCC(=O)O)CC1
EC50 [1]: 15.8 nM | EC50 [2]: 2000 nM | EC50 [3]: 2000 nM | Ratio EC50 (Homo sapiens [9]): 100

O=C(O)CCN1CCC2(CC1)COc1cc(OCc3ccccc3)ccc12
EC50 [1]: 1000 nM | EC50 [2]: > 31600 nM | EC50 [3]: > 10000 nM

Cl.O=C(O)CCN1CCC2(CC1)COc1cc(OCc3c(F)cccc3Cl)ccc12
EC50 [1]: 63.1 nM | EC50 [2]: 6310 nM | solubility kinetic [4]: 30 to 100 µM | microsomal CLint [5]: 2.7 µL/min/mg | half-life [6]: 8.42 h | Ratio EC50 (Homo sapiens [9]): 100

Cl.O=C(O)CCN1CCC2(CC1)COc1c2ccc(OCc2c(Cl)cccc2Cl)c1F
EC50 [1]: 6.31 nM | EC50 [2]: 1000 nM | EC50 [3]: > 10000 nM | solubility kinetic [4]: 30 to 100 µM | microsomal CLint [5]: 6.5 µL/min/mg | half-life [6]: 3.55 h | Ratio EC50 (Homo sapiens [9]): 1000

Cl.O=C(O)CCN1CCCC2(COc3cc(OCc4c(Cl)cccc4Cl)ccc32)C1 (stereo unspecified)
EC50 [1]: 100 nM | solubility kinetic [4]: ≥ 100 µM | microsomal CLint [5]: 3.1 µL/min/mg | half-life [6]: 7.57 h | Ratio EC50 (Homo sapiens [9]): 100

O=C(O)CCN1CCC2(CC1)COc1cc(OCc3c(Cl)cccc3OC(F)(F)F)ccc12
EC50 [1]: 20 nM | EC50 [2]: 3980 nM

CCc1cccc(Cl)c1COc1ccc2c(c1)OCC21CCN(CC(C)C(=O)O)CC1.Cl (stereo unspecified)
EC50 [1]: 15.8 nM | EC50 [2]: 316 nM | EC50 [3]: > 10000 nM | solubility kinetic [4]: ≥ 100 µM | microsomal CLint [5]: 6.1 µL/min/mg | half-life [6]: 3.8 h | Ratio EC50 (Homo sapiens [9]): 100

Cl.O=C(O)CCN1CCC2(CC1)COc1cc(SCc3c(Cl)cccc3Cl)ccc12
EC50 [1]: 12.6 nM | EC50 [2]: > 10000 nM | EC50 [3]: 3980 nM | solubility kinetic [4]: ≥ 100 µM | microsomal CLint [5]: 21 µL/min/mg | half-life [6]: 1.08 h | Ratio EC50 (Homo sapiens [9]): 100 | Ratio EC50 (Homo sapiens [10]): 1000

O=C(O)CN1CCC2(CC1)COc1cc(OCc3c(Cl)cccc3Cl)ccc12
EC50 [1]: 31.6 nM | EC50 [2]: 6310 nM | EC50 [3]: > 1000 nM | Ratio EC50 (Homo sapiens [9]): 100

O=P(O)(O)OCCN1CCC2(CC1)COc1cc(OCc3c(Cl)cccc3Cl)ccc12
EC50 [1]: 20 nM | EC50 [2]: 251 nM | EC50 [3]: > 10000 nM | Ratio EC50 (Homo sapiens [9]): 100

O=C(O)CCN1CCC2(CC1)COc1cc(OCc3cc(Cl)ccc3Cl)ccc12
EC50 [1]: 200 nM | EC50 [2]: 12600 nM | EC50 [3]: 1000 nM
